In the OligoGym collection one finds remaining target (mRNA or protein) (fraction of control) data, which are given here for 58 sequences.

These antisense oligonucleotides have a phosphorothioate backbone; sugars and methylation of C are not fully specified.

What all share (settings): ASO
The target of data set [1] is TERF1.
Data set [2] addresses RHOB.
In data set [3] the target is PTPN6.
Note: test concentration or dose not given here.

AAACACAATCAGTCTTCGCT came in with a remaining target (mRNA or protein) (fraction of control) in data set [1] of 0.93. In data set [2], AACTCGTCCTTACTGAAC displayed a remaining target (mRNA or protein) (fraction of control) of 0.7.

The sequence AAGCACATGAGAATGACG had a remaining target (mRNA or protein) (fraction of control) in data set [2] of at least 1. Regarding AAGCTTTTACAAACACAATC, in data set [1], the remaining target (mRNA or protein) (fraction of control) was at least 1. On the same count and under the same terms, to AATCAGTCTTCGCTGTCTGA belongs at least 1.

For the sequence ACAAACACAATCAGTCTTCG, in data set [1], the remaining target (mRNA or protein) (fraction of control) was at least 1. On the same count and under the same terms, the figure for ACAATCAGTCTTCGCTGTCT is 0.57. On the same count and under the same terms, the figure for ACACAATCAGTCTTCGCTGT is 0.64. As to ACCCACGGGACAGCATCTCT, the remaining target (mRNA or protein) (fraction of control) in data set [3] is at least 1.

The sequence ACCTCGCGCACGCCTTCC showed a remaining target (mRNA or protein) (fraction of control) in data set [2] of at least 1. As to ACGGGACAGCATCTCTCTGT, the remaining target (mRNA or protein) (fraction of control) in data set [3] came out at 0.65. Consider ACGGGTTCCTGCTTCATG, for which the remaining target (mRNA or protein) (fraction of control) in data set [2] is at least 1. Take ACTGAACACGATCAGCAG: the remaining target (mRNA or protein) (fraction of control) in data set [2] was at least 1.

As for ACTGGCAAGCTGTTAGACTG, the remaining target (mRNA or protein) (fraction of control) in data set [1] was 0.49. AGACCTCGCGCACGCCTT gave a remaining target (mRNA or protein) (fraction of control) in data set [2] of 0.84. Same read-out and setting: the figure for AGCACCTTGCAGCAGTTG is at least 1. Sequence AGCAGGGTCTCTGCATCCAG gave a remaining target (mRNA or protein) (fraction of control) in data set [3] of at least 1.

Turning to AGGCTCTCACGCACAAGAAA, in data set [3], the remaining target (mRNA or protein) (fraction of control) is 0.66. On to AGGTTTATCTTGAGAAGTTA, for which the remaining target (mRNA or protein) (fraction of control) in data set [1] was at least 1.

In data set [1], AGTCTTCGCTGTCTGAGGAA came in with a remaining target (mRNA or protein) (fraction of control) of 0.59. On the same count and under the same terms, the figure for ATATTAAATGAAGGTATCAG is at least 1. Turning to ATGTGGCCATGGTACCACCT, the remaining target (mRNA or protein) (fraction of control) in data set [3] was at least 1. Sequence ATGTTCTCCAGCGAGTCC showed a remaining target (mRNA or protein) (fraction of control) in data set [2] of at least 1. On to CAAACAAAATGCAGTGATCA, for which the remaining target (mRNA or protein) (fraction of control) in data set [1] was found to be 0.84. CAAACTCTCAAACTCCTCCC had a remaining target (mRNA or protein) (fraction of control) in data set [3] of 0.88. In data set [1], CACAGTCCCCAGTAGGTAAG had a remaining target (mRNA or protein) (fraction of control) of 0.56. Sequence CAGCAGTTGATGCAGCCG yielded a remaining target (mRNA or protein) (fraction of control) in data set [2] of 0.69. CAGCATCTCTCTGTAGGGAG came in with a remaining target (mRNA or protein) (fraction of control) in data set [3] of 0.81. In data set [2], CATAGTTCTCGAAGACGG showed a remaining target (mRNA or protein) (fraction of control) of at least 1. Sequence CATCCTCCGCCATGTTAAAT had a remaining target (mRNA or protein) (fraction of control) in data set [1] of 0.73.

CCAAATCATCAGGGCTGATT yielded a remaining target (mRNA or protein) (fraction of control) in data set [1] of at least 1. For CCACCACCAGCTTCTTGC, the remaining target (mRNA or protein) (fraction of control) in data set [2] was at least 1. CCACCCACGGGACAGCATCT gave a remaining target (mRNA or protein) (fraction of control) in data set [3] of at least 1.

With CCACCTGAGGACAGCACCGC, the remaining target (mRNA or protein) (fraction of control) in data set [3] worked out at 0.84. Still for that read-out and setting: to CCACGGGACAGCATCTCTCT belongs at least 1. In the case of CCAGCTCTGTGCGGACAT, in data set [2], the remaining target (mRNA or protein) (fraction of control) was 0.79. Sequence CCCTGACGGAGAGCGAGAAG yielded a remaining target (mRNA or protein) (fraction of control) in data set [3] of at least 1. Sequence CCGTCCACCTCAATGTCG registered a remaining target (mRNA or protein) (fraction of control) in data set [2] of at least 1. On the same count and under the same terms, the figure for CCGTCGCCCACCACCACC is at least 1; for CCTTACTGAACACGATCA it is at least 1; for CGAAGACCTCGCGCACGC it is at least 1. In data set [3], CGACTCCTGGCCCTTCTGCG yielded a remaining target (mRNA or protein) (fraction of control) of 0.61. As to CGAGGTAGTCGTAGGCTT, in data set [2], the remaining target (mRNA or protein) (fraction of control) was found to be 0.61.

CGCATTTGTTCCGGCCTTTC displayed a remaining target (mRNA or protein) (fraction of control) in data set [3] of 0.69. Turning to CGCTCACTTCCTCTTGAGGG, in data set [3], the remaining target (mRNA or protein) (fraction of control) was 0.69. Take CGGACATGCTCGTCGCTG: the remaining target (mRNA or protein) (fraction of control) in data set [2] was at least 1. Same read-out and setting: the figure for CGGGCCAGCTCTGTGCGG is 0.62.

Regarding CGTGAGGCTGTCGAAGGTCT, the remaining target (mRNA or protein) (fraction of control) in data set [3] is 0.9.

In data set [2], CGTGGCCGTCTCGAAGAC registered a remaining target (mRNA or protein) (fraction of control) of at least 1. Still for that read-out and setting: to CTCGAAGACCTCGCGCAC belongs at least 1. The sequence CTCGGAGCGGCCGTCGCGGA showed a remaining target (mRNA or protein) (fraction of control) in data set [1] of 0.9.

On to CTCGGCCACCAGGCCCGCGT, for which the remaining target (mRNA or protein) (fraction of control) in data set [1] was 0.82. In turn, CTCGTCCTTACTGAACAC came in with a remaining target (mRNA or protein) (fraction of control) in data set [2] of 0.99.

In the case of CTCTGTGCGGACATGCTC, in data set [2], the remaining target (mRNA or protein) (fraction of control) was found to be 0.61. With CTCTTGAGGGAACCCTTGCT, in data set [3], the remaining target (mRNA or protein) (fraction of control) is 0.49. Sequence CTGAGGAAACATCCTCCGCC registered a remaining target (mRNA or protein) (fraction of control) in data set [1] of 0.68. Still for that read-out and setting: the figure for CTTTCTGAGAGATTATCAT is 0.93. In data set [3], GAAACCACCCACGGGACAGC yielded a remaining target (mRNA or protein) (fraction of control) of at least 1.
